Results taken from patent US20140166028A1, “Enhanced Delivery of Nicotine, THC, Tobacco, Cannabidiol or Base Alkaloid from an Electronic Cigarette or Other Vapor or Smoke Producing Device Through Use of an Absorption Conditioning Unit” (priority 2012, published 2014).
Several values for one entry are separate records, joined by “and”; a condition that tells them apart may be missing. Identical values can stand only once.

Legend:
[1] = Buffer power test: pH on 1X, 2X, 3X dilution with Dulbecco's phosphate buffered saline (DPBS); type: physicochemical; conditions: for pH 1X DPBS: 1X dilution with DPBS; for pH 1X DPBS / pH 2X DPBS / pH 3X DPBS / pH 0X DPBS: 22-23° C.; for 1× pH: 1× dilution with DPBS; for pH 2X DPBS: 2X dilution with DPBS; for 2× pH: 2× dilution with DPBS; for pH 3X DPBS: 3X dilution with DPBS; for 3× pH: 3× dilution with DPBS; for pH of the product or solution: undiluted (0×); for pH 0X DPBS: undiluted
Description: The pH of the resulting solution is tested and the test is passed if the resulting solution has a pH below 6.0.”
A Dulbecco phosphate buffer saline solution (DPBS) was purchased and used for all compositions at the 1×, 2× and 3× dilution. A typical composition for DPBS is provided below:

[2] = capsules with sesame oil, oral; cited from earlier work

Which “pH 1X DPBS” value [1] does the source give for `O=C([O-])[O-].[Na+].[Na+]` [Na2CO3 .1M, sodium carbonate] here?
The value was 10.9 and 11.1.

And the “1× pH” value [1]?
The value was 10.9.

What about the “pH 2X DPBS” value [1] of the same molecule?
Its value is 11.1.

What about the “2× pH” value [1] of the same molecule?
The value was 10.8.

And the “pH 3X DPBS” value [1]?
Its value is 11.1.

What about the “3× pH” value [1] of the same molecule?
Its value is 10.6.

What about the “pH of the product or solution” value ([1]; listed as 0.1M Sodium Carbonate) of the same molecule?
The value was 11.3.

And the “pH of the product or solution” value ([1]; listed as Sodium carbonate solution: 0.1M)?
Its value is 11.5.

And the “pH 0X DPBS” value [1]?
Its value is 11.5 and 11.3.

Which “fraction entering the systemic circulation” value [2] does the source give for `CCCCCc1cc(O)c2c(c1)OC(C)(C)[C@@H]1CCC(C)=C[C@@H]21` [dronabinol] here?
The value was 10-20%.

For `O=C([O-])O.[Na+]` [0.1M Sodium Bicarbonate, sodium bicarbonate], which “pH 1X DPBS” value ([1]; listed as NaHCO3 .1M*) is on record?
Its value is 7.9 and 7.7.

What about the “pH 1X DPBS” value ([1]; listed as NaHCO3 .1M**) of the same molecule?
Its value is 7.7.

And the “1× pH” value [1]?
The value was 7.9 and 7.7.

And the “pH 2X DPBS” value ([1]; listed as NaHCO3 .1M*)?
The value was 7.5 and 7.6.

What about the “pH 2X DPBS” value ([1]; listed as NaHCO3 .1M**) of the same molecule?
The value was 7.5.

What about the “2× pH” value [1] of the same molecule?
The value was 7.5.

What about the “pH 3X DPBS” value ([1]; listed as NaHCO3 .1M*) of the same molecule?
Its value is 7.5 and 7.6.

What about the “pH 3X DPBS” value ([1]; listed as NaHCO3 .1M**) of the same molecule?
Its value is 7.5.

And the “3× pH” value [1]?
The value was 7.5.

And the “pH of the product or solution” value [1]?
Its value is 8.1.

What about the “pH 0X DPBS” value [1] of the same molecule?
The value was 8.1.
